{
  "source": "patent US5332818A",
  "about": "“Immunosuppressive agent and process of producing the same” (Toray Industries, Inc., priority 1989, dated 1994)",
  "test_system": "mouse spleen cells",
  "experiment": "Suppression of mitogen (ConA) reaction",
  "assay_type": "cell-based, C57BL/6 mouse",
  "details": "48 hours, 3 cases, read-out: Suppression Rate of Mitogen Reaction; for inhibition at 1 µg/mL: 1 μg/ml; for inhibition at 10 µg/mL: 10 μg/ml; for inhibition at 50 µg/mL: 50 μg/ml",
  "experimental": "If mouse spleen cells are cultured in vitro in the presence of concanavalin A (hereinafter referred to as \"ConA\" for short), the cells are divided and proliferated (mitogen reaction). In this system, the immunosuppressive agent of the present invention or cyclosporin A as a comparative example was added to the culture medium and the effects to the mitogen reaction were examined.\nMore particularly, C57BL/6 mouse was sacrificed and the spleen was removed. The spleen cells were suspended in RPMI 1640 culture medium containing 10% fetal calf serum (hereinafter referred to as \"RPMI 1640\" for short) so as to prepare a spleen cell suspension (5×10^6 cells/ml). In the wells of a flat-bottomed 96-well microplate, 100 μl of the suspension was placed and then 50 μl of RPMI 1640 containing ConA (4 μg/ml) as well as 50 μl of RPMI 1640 containing the test compound in the concentration shown in Table 2 were added. The cells were cultured for 48 hours (37° C. 5%CO2) As a control, 50 μl of RPMI 1640 was added. Eight hours before the termination of the culture, 2 μ Ci of [^3 H] thymidine was […], added. After termination of the culture, the cells were collected on a filter paper by using a cell harvester. After drying the filter paper, the filter paper was placed in a vial containing toluene-based scintillator and the radioactivity was measured by a liquid scintillation counter.\nThe suppression rate of mitogen reaction was calculated according to the following equation: [formula]",
  "data": [
    {"compound": "CC(=O)Oc1ccc2c3c1O[C@H]1c4[nH]c5ccccc5c4C[C@@]4(OC(C)=O)[C@@H](C2)N(CC2CC2)CC[C@]314", "note": "[cyclopropylmethyl OAc Ac NH H H]", "values": [
      {"measurement": "inhibition at 1 µg/mL", "result": 4, "unit": "%"},
      {"measurement": "inhibition at 10 µg/mL", "result": 55, "unit": "%"},
      {"measurement": "inhibition at 50 µg/mL", "result": 100, "unit": "%"}
    ]},
    {"compound": "Cc1ccc2[nH]c3c(c2c1)C[C@@]1(O)[C@H]2Cc4ccc(O)c5c4[C@@]1(CCN2CC1CC1)[C@H]3O5", "note": "[cyclopropylmethyl OH H NH 5'-Me H]", "values": [
      {"measurement": "inhibition at 1 µg/mL", "result": 8, "unit": "%"},
      {"measurement": "inhibition at 10 µg/mL", "result": 34, "unit": "%"},
      {"measurement": "inhibition at 50 µg/mL", "result": 100, "unit": "%"}
    ]},
    {"compound": "C=CCN1CC[C@]23c4c5ccc(O)c4O[C@H]2c2c(c4ccccc4n2C)C[C@@]3(O)[C@H]1C5", "note": "[allyl OH H NMe H H]", "values": [
      {"measurement": "inhibition at 1 µg/mL", "result": 13, "unit": "%"},
      {"measurement": "inhibition at 10 µg/mL", "result": 50, "unit": "%"},
      {"measurement": "inhibition at 50 µg/mL", "result": 100, "unit": "%"}
    ]},
    {"compound": "O=[N+]([O-])c1cccc2c3c([nH]c12)[C@@H]1Oc2c(O)ccc4c2[C@@]12CCN(CC1CC1)[C@H](C4)[C@]2(O)C3", "note": "[cyclopropylmethyl OH H NH 7'-NO2 H]", "values": [
      {"measurement": "inhibition at 1 µg/mL", "result": 5, "unit": "%"},
      {"measurement": "inhibition at 10 µg/mL", "result": 55, "unit": "%"},
      {"measurement": "inhibition at 50 µg/mL", "result": 100, "unit": "%"}
    ]},
    {"compound": "Oc1ccc2c3c1O[C@H]1c4[nH]c5c(Cl)cccc5c4C[C@@]4(O)[C@@H](C2)N(CC2CC2)CC[C@]314", "note": "[cyclopropylmethyl OH H NH 7'-Cl H]", "values": [
      {"measurement": "inhibition at 1 µg/mL", "result": 15, "unit": "%"},
      {"measurement": "inhibition at 10 µg/mL", "result": 75, "unit": "%"},
      {"measurement": "inhibition at 50 µg/mL", "result": 100, "unit": "%"}
    ]},
    {"compound": "C=CCN1CC[C@]23c4c5ccc(O)c4O[C@H]2c2[nH]c4ccc(C)cc4c2C[C@@]3(O)[C@H]1C5", "note": "[allyl OH H NH 5'-Me H, 5'-methylnaloxindole]", "values": [
      {"measurement": "inhibition at 1 µg/mL", "result": 22, "unit": "%"},
      {"measurement": "inhibition at 10 µg/mL", "result": 45, "unit": "%"},
      {"measurement": "inhibition at 50 µg/mL", "result": 100, "unit": "%"}
    ]},
    {"compound": "C=CCN1CC[C@]23c4c5ccc(O)c4O[C@H]2c2[nH]c4c(Cl)cccc4c2C[C@@]3(O)[C@H]1C5", "note": "[allyl OH H NH 7'-Cl H]", "values": [
      {"measurement": "inhibition at 1 µg/mL", "result": 17, "unit": "%"},
      {"measurement": "inhibition at 10 µg/mL", "result": 50, "unit": "%"},
      {"measurement": "inhibition at 50 µg/mL", "result": 100, "unit": "%"}
    ]},
    {"compound": "Oc1ccc2c3c1O[C@H]1c4[nH]c5c(F)cccc5c4C[C@@]4(O)[C@@H](C2)N(CC2CC2)CC[C@]314", "note": "[cyclopropylmethyl OH H NH 7'-F H]", "values": [
      {"measurement": "inhibition at 1 µg/mL", "result": 15, "unit": "%"},
      {"measurement": "inhibition at 10 µg/mL", "result": 61, "unit": "%"},
      {"measurement": "inhibition at 50 µg/mL", "result": 100, "unit": "%"}
    ]},
    {"compound": "C=CCN1CC[C@]23c4c5ccc(O)c4O[C@H]2c2oc4ccccc4c2C[C@@]3(O)[C@H]1C5", "note": "[allyl OH H O H H]", "values": [
      {"measurement": "inhibition at 1 µg/mL", "result": 6, "unit": "%"},
      {"measurement": "inhibition at 10 µg/mL", "result": 45, "unit": "%"},
      {"measurement": "inhibition at 50 µg/mL", "result": 100, "unit": "%"}
    ]},
    {"compound": "Cn1c2c(c3ccccc31)C[C@@]1(O)[C@H]3Cc4ccc(O)c5c4[C@@]1(CCN3CC1CC1)[C@H]2O5", "note": "[cyclopropylmethyl OH H NMe H H]", "values": [
      {"measurement": "inhibition at 1 µg/mL", "result": 15, "unit": "%"},
      {"measurement": "inhibition at 10 µg/mL", "result": 69, "unit": "%"},
      {"measurement": "inhibition at 50 µg/mL", "result": 100, "unit": "%"}
    ]},
    {"compound": "CN1CC[C@]23c4c5ccc(O)c4O[C@H]2c2[nH]c4ccccc4c2C[C@H]3[C@H]1C5", "note": "[Me H H NH H H]", "values": [
      {"measurement": "inhibition at 1 µg/mL", "result": 0, "unit": "%"},
      {"measurement": "inhibition at 10 µg/mL", "result": 12, "unit": "%"},
      {"measurement": "inhibition at 50 µg/mL", "result": 52, "unit": "%"}
    ]},
    {"compound": "C=CCN1CC[C@]23c4c5ccc(OC)c4O[C@H]2c2[nH]c4ccccc4c2C[C@@]3(O)[C@H]1C5", "note": "[allyl OH Me NH H H]", "values": [
      {"measurement": "inhibition at 1 µg/mL", "result": 17, "unit": "%"},
      {"measurement": "inhibition at 10 µg/mL", "result": 32, "unit": "%"},
      {"measurement": "inhibition at 50 µg/mL", "result": 100, "unit": "%"}
    ]},
    {"compound": "CC(=O)O[C@@]12Cc3c([nH]c4ccccc34)[C@@H]3Oc4c(O)ccc5c4[C@@]31CCN(CC1CC1)[C@@H]2C5", "note": "[cyclopropylmethyl OAc H NH H H]", "values": [
      {"measurement": "inhibition at 1 µg/mL", "result": 2, "unit": "%"},
      {"measurement": "inhibition at 10 µg/mL", "result": 70, "unit": "%"},
      {"measurement": "inhibition at 50 µg/mL", "result": 100, "unit": "%"}
    ]},
    {"compound": "Oc1ccc2c3c1O[C@H]1c4nc5ccccc5cc4C[C@@]4(O)[C@@H](C2)N(CC2CC2)CC[C@]314", "note": "[cyclopropylmethyl OH H CH H H]", "values": [
      {"measurement": "inhibition at 1 µg/mL", "result": 15, "unit": "%"},
      {"measurement": "inhibition at 10 µg/mL", "result": 43, "unit": "%"},
      {"measurement": "inhibition at 50 µg/mL", "result": 75, "unit": "%"}
    ]},
    {"compound": "C=CCN1CC[C@]23c4c5ccc(OC(C)=O)c4O[C@H]2c2[nH]c4ccccc4c2C[C@@]3(OC(C)=O)[C@H]1C5", "note": "[allyl OAc Ac NH H H]", "values": [
      {"measurement": "inhibition at 1 µg/mL", "result": 2, "unit": "%"},
      {"measurement": "inhibition at 10 µg/mL", "result": 40, "unit": "%"},
      {"measurement": "inhibition at 50 µg/mL", "result": 100, "unit": "%"}
    ]},
    {"compound": "Oc1ccc2c3c1O[C@H]1c4[nH]c5ccc6ccccc6c5c4C[C@@]4(O)[C@@H](C2)N(CC2CC2)CC[C@]314", "note": "[cyclopropylmethyl OH H NH 4',5'-benzo]", "values": [
      {"measurement": "inhibition at 1 µg/mL", "result": 2, "unit": "%"},
      {"measurement": "inhibition at 10 µg/mL", "result": 30, "unit": "%"},
      {"measurement": "inhibition at 50 µg/mL", "result": 88, "unit": "%"}
    ]},
    {"compound": "COc1ccc2c3c1O[C@H]1c4[nH]c5ccccc5c4C[C@@]4(O)[C@@H](C2)N(CC2CC2)CC[C@]314", "note": "[cyclopropylmethyl OH Me NH H H]", "values": [
      {"measurement": "inhibition at 1 µg/mL", "result": 9, "unit": "%"},
      {"measurement": "inhibition at 10 µg/mL", "result": 65, "unit": "%"},
      {"measurement": "inhibition at 50 µg/mL", "result": 100, "unit": "%"}
    ]},
    {"compound": "Oc1ccc2c3c1O[C@H]1c4nc5ccccc5nc4C[C@@]4(O)[C@@H](C2)N(CC2CC2)CC[C@]314", "note": "[cyclopropylmethyl OH H N H H]", "values": [
      {"measurement": "inhibition at 1 µg/mL", "result": 10, "unit": "%"},
      {"measurement": "inhibition at 10 µg/mL", "result": 34, "unit": "%"},
      {"measurement": "inhibition at 50 µg/mL", "result": 55, "unit": "%"}
    ]},
    {"compound": "Oc1ccc2c3c1O[C@H]1c4[nH]c5ccc(Br)cc5c4C[C@@]4(O)[C@@H](C2)N(CC2CC2)CC[C@]314", "note": "[cyclopropylmethyl OH H NH 5'-Br H]", "values": [
      {"measurement": "inhibition at 1 µg/mL", "result": 7, "unit": "%"},
      {"measurement": "inhibition at 10 µg/mL", "result": 40, "unit": "%"},
      {"measurement": "inhibition at 50 µg/mL", "result": 100, "unit": "%"}
    ]},
    {"compound": "Oc1ccc2c3c1O[C@H]1c4[nH]c5ccc(Cl)cc5c4C[C@@]4(O)[C@@H](C2)N(CC2CC2)CC[C@]314", "note": "[cyclopropylmethyl OH H NH 5'-Cl H]", "values": [
      {"measurement": "inhibition at 1 µg/mL", "result": 12, "unit": "%"},
      {"measurement": "inhibition at 10 µg/mL", "result": 37, "unit": "%"},
      {"measurement": "inhibition at 50 µg/mL", "result": 100, "unit": "%"}
    ]},
    {"compound": "Cc1ccc2c3c([nH]c2c1)[C@@H]1Oc2c(O)ccc4c2[C@@]12CCN(CC1CC1)[C@H](C4)[C@]2(O)C3", "note": "[cyclopropylmethyl OH H NH 6'-Me H]", "values": [
      {"measurement": "inhibition at 1 µg/mL", "result": 0, "unit": "%"},
      {"measurement": "inhibition at 10 µg/mL", "result": 28, "unit": "%"},
      {"measurement": "inhibition at 50 µg/mL", "result": 100, "unit": "%"}
    ]}
  ]
}
